In EP0354453A2, “Antimicrobial agent for animals” (priority 1988, dated 1990):

How the values were obtained:
Mycoplasma gallisepticum = test: Effect of oral administration on chicken inoculated with Mycoplasma gallisepticum; format: in vivo; conditions: for Chickens developing disease in air sac (naked eye observation) / No. of dead chickens: 5 tested chickens
Experimental: Mycoplasma gallisepticum cells collected from chickens having respiratory Mycoplasma infection were cultured for 3 days in a Frey liquid media for Mycoplasma. 0.2 ml of this culture broth was injected into the trachea of chickens of an average body weight of 80 g using a 1 ml disposable injection needle. Beginning from the next day following the inoculation, feeds to which Compound (1) had been added in the amount of 100 ppm, 75 ppm, or 50 ppm were freely given to the chickens for 5 days. Following the administration of Compound (1) the chickens were given feed containing no drug for a further 5 days. The surviving chickens were sacrificed and dissected. After examination of the degree of disease in the air sac, Mycoplasma gallisepticum in the infraorbital sinus, trachea, lung, and air sac were determined. […] TABLE 6 […]

[1] = system: Salmonella typhimurium 595; test: in vitro antimicrobial activity (MIC), agar dilution, Part 1; format: cell-based; conditions: Salmonella enterica; Salmonella typhimurium 595, Pig; Mueller Hinton agar, 37°C, 18-24 hours
Experimental: (§1) Test microorganisms listed in Table 2 were cultured overnight in heart infusion nutrient broth (produced by Eiken Chemical Co., Ltd.). Culture broth containing about 10⁸/ml cells was diluted to a volume of 100 times. An aliquot (about 0.05 ml) of the diluted broth was inoculated onto a Mueller Hinton agar plate (produced by Eiken Chemical Co., Ltd.) to which Compound No. 1 was added in a prescribed concentration. […]

[2] = system: Salmonella typhimurium 101; test: as above; format: cell-based; conditions: Salmonella enterica; Salmonella typhimurium 101, Chicken; Mueller Hinton agar, 37°C, 18-24 hours
Experimental: as §1

[3] = system: Bordetella bronchiaseptica AR3; test: as above; format: cell-based; conditions: Bordetella bronchiaseptica AR3, Pig; Mueller Hinton agar, 37°C, 18-24 hours
Experimental: as §1

[4] = system: Staphylococcus aureus Aichi 2; test: as above; format: cell-based; conditions: AICHI2; Staphylococcus aureus Aichi 2, Chicken; Mueller Hinton agar, 37°C, 18-24 hours
Experimental: as §1

Escherichia coli 442 = test: as above; format: cell-based; conditions: Escherichia coli 442, Chicken; Mueller Hinton agar, 37°C, 18-24 hours
Experimental: as §1

Escherichia coli 164 = test: as above; format: cell-based; conditions: Escherichia coli 164, Pig; Mueller Hinton agar, 37°C, 18-24 hours
Experimental: as §1

Escherichia coli 15-4 = test: as above; format: cell-based; conditions: 154; Escherichia coli 15-4, Cow; Mueller Hinton agar, 37°C, 18-24 hours
Experimental: as §1

[5] = system: pathogenic bacteria derived from animals; test: in vitro antimicrobial activity, Part 1, overall comparison; format: cell-based; conditions: summary of Table 2
Experimental: as §1

Escherichia coli = test: Effect of oral administration on chicken inoculated with Escherichia coli; format: in vivo; conditions: for Chickens developing disease in air sac (naked eye observation) / No. of dead chickens: 5 tested chickens
Experimental: Escherichia coli cells collected from infected chicken were cultured overnight in a trypticase soy broth (BBL). 0.2 ml of this culture broth was injected into the trachea of chickens of average body weight of 80 g using a 1 ml disposable injection needle. Beginning 2 hours after the inoculation, feeds to which Compound (1) had been added in the amount of 50 ppm, 25 ppm, or 12.5 ppm were freely given to the chickens for 5 days. Following the administration of Compound (1) the chickens were given feed with no addition of drug for 5 days. The surviving chickens were sacrificed and dissected. After examination of the degree of disease in the air sac, Escherichia coli in the trachea, lung, and air sac were quantitatively determined. […]

[6] = system: Salmonella typhimurium 103; test: in vitro antimicrobial activity (MIC), agar dilution, Part 2; format: cell-based; conditions: Salmonella enterica; Salmonella typhimurium 103, Chicken; read-out: MIC
Experimental: as §1
(§2) MIC of Compounds (1)-(8) against various pathogenic bacteria derived from animals was determined in the same manner as in Example 1.

[7] = system: Staphylococcus aureus Yamaguchi 6; test: as above; format: cell-based; conditions: Staphylococcus aureus Yamaguchi 6, Chicken; read-out: MIC
Experimental: as §1, §2

[8] = system: Bordetella bronchiaseptica OKM-1; test: as above; format: cell-based; conditions: Bordetella, OKM1, Bordetella bronchiaseptica OKM-1, Pig; read-out: MIC
Experimental: as §1, §2

Escherichia coli S6W = test: as above; format: cell-based; conditions: Escherichia coli, S6W, Escherichia coli S6W, Chicken; read-out: MIC
Experimental: as §1, §2

Escherichia coli 881 = test: as above; format: cell-based; conditions: Escherichia coli, 881, Escherichia coli 881, Pig; read-out: MIC
Experimental: as §1, §2

[9] = system: Salmonella typhimurium 569; test: as above; format: cell-based; conditions: Salmonella enterica, TYPHIMURIUM, Salmonella typhimurium 569, Pig; read-out: MIC
Experimental: as §1, §2

Escherichia coli 139 = test: as above; format: cell-based; conditions: Escherichia coli 139, Cow; read-out: MIC
Experimental: as §1, §2

[10] = system: Mycoplasma gallisepticum Strain T-7; test: in vitro antimicrobial activity (MIC) in Frey liquid medium; format: cell-based; conditions: Mycoplasmoides gallisepticum, Mycoplasma gallisepticum Strain T-7, from chicken, 37°C, 3-5 days
Experimental: (§3) Various test strains of Mycoplasma gallisepticum derived from chicken were cultured in a Frey liquid medium for Mycoplasma for 3 days. The culture broth containing about 10⁸/ml cells was diluted to a volume of 100 times. The diluted broth was inoculated into Frey liquid media for Mycoplasma to which the compounds of this invention were added at prescribed concentrations. The cells were incubated at 37°C for 3-5 days while daily observing the color of the media. Among the culture broths maintaining yellow color at the time when the control to which no test compound was added turned red, the concentration of the broth having the minimum concentration was taken as the MIC of the compound.

[11] = system: Mycoplasma gallisepticum Strain 2012; test: as above; format: cell-based; conditions: Mycoplasmoides gallisepticum, STRAIN2012; Mycoplasma gallisepticum Strain 2012, from chicken; Frey liquid medium, 37°C, 3-5 days; read-out: MIC
Experimental: as §3

[12] = system: Mycoplasma gallisepticum Strain 2004; test: as above; format: cell-based; conditions: Mycoplasmoides gallisepticum, STRAIN2004; Mycoplasma gallisepticum Strain 2004, from chicken; Frey liquid medium, 37°C, 3-5 days; read-out: MIC
Experimental: as §3

[13] = system: Mycoplasma gallisepticum Strain DP-1047; test: as above; format: cell-based; conditions: Mycoplasmoides gallisepticum; Mycoplasma gallisepticum Strain DP-1047, from chicken; Frey liquid medium, 37°C, 3-5 days; read-out: MIC
Experimental: as §3

[14] = system: Mycoplasma gallisepticum Strain T-2; test: as above; format: cell-based; conditions: Mycoplasmoides gallisepticum; Mycoplasma gallisepticum Strain T-2, from chicken; Frey liquid medium, 37°C, 3-5 days; read-out: MIC
Experimental: as §3

## C[C@H]1COc2c(N3CCN(C)CC3)c(F)cc3c(=O)c(C(=O)O)cn1c23 [Compound (1), 3S-9-fluoro-2,3-dihydro-3-methyl-10-(4-methyl-1-piperazinyl)-7-oxo-7H-pyrido[1,2,3-de] [1,4]benzoxazine-6-carboxylic acid hemihydrate]
Mycoplasma gallisepticum; 50 ppm in feed for 5 days
  Mycoplasma gallisepticum collected in Air sac: 2.32 Logarithmic number of collected cells per 1 g of tissue
  Mycoplasma gallisepticum collected in Infraorbital sinus: 0/5
  Mycoplasma gallisepticum collected in Lung: 0 Logarithmic number of collected cells per 1 g of tissue
  Mycoplasma gallisepticum collected in Trachea: 0 Logarithmic number of collected cells per 1 g of tissue
  Chickens developing disease in air sac (naked eye observation): 0
  No. of dead chickens: 0
Mycoplasma gallisepticum; 75 ppm in feed for 5 days
  Mycoplasma gallisepticum collected in Air sac: 0 Logarithmic number of collected cells per 1 g of tissue
  Mycoplasma gallisepticum collected in Infraorbital sinus: 0/5
  Mycoplasma gallisepticum collected in Lung: 0 Logarithmic number of collected cells per 1 g of tissue
  Mycoplasma gallisepticum collected in Trachea: 0 Logarithmic number of collected cells per 1 g of tissue
  Chickens developing disease in air sac (naked eye observation): 0
  No. of dead chickens: 0
Mycoplasma gallisepticum; 100 ppm in feed for 5 days
  Mycoplasma gallisepticum collected in Air sac: 0 Logarithmic number of collected cells per 1 g of tissue
  Mycoplasma gallisepticum collected in Infraorbital sinus: 0/5
  Mycoplasma gallisepticum collected in Lung: 0 Logarithmic number of collected cells per 1 g of tissue
  Mycoplasma gallisepticum collected in Trachea: 0 Logarithmic number of collected cells per 1 g of tissue
  Chickens developing disease in air sac (naked eye observation): 0
  No. of dead chickens: 0
[1]
  MIC: 0.05 µg/mL
[2]
  MIC: 0.025 µg/mL
[3]
  MIC: 0.2 µg/mL
[4]
  MIC: 0.1 µg/mL
Escherichia coli 442
  MIC: 0.025 µg/mL
Escherichia coli 164
  MIC: 0.05 µg/mL
Escherichia coli 15-4
  MIC: 0.05 µg/mL
[5]
  antimicrobial activities compared with Ofloxacin: higher antimicrobial activities than its known racemic isomer (Ofloxacin)
Escherichia coli; 12.5 ppm in feed for 5 days
  Escherichia coli collected in Air sac: 3.99 Logarithmic number of collected cells per 1 g of tissue
  Escherichia coli collected in Lung: 2.78 Logarithmic number of collected cells per 1 g of tissue
  Escherichia coli collected in Trachea: 2.78 Logarithmic number of collected cells per 1 g of tissue
  Chickens developing disease in air sac (naked eye observation): 3
  No. of dead chickens: 1
Escherichia coli; 25 ppm in feed for 5 days
  Escherichia coli collected in Air sac: 0 Logarithmic number of collected cells per 1 g of tissue
  Escherichia coli collected in Lung: 0 Logarithmic number of collected cells per 1 g of tissue
  Escherichia coli collected in Trachea: 0 Logarithmic number of collected cells per 1 g of tissue
  Chickens developing disease in air sac (naked eye observation): 1
  No. of dead chickens: 0
Escherichia coli; 50 ppm in feed for 5 days
  Escherichia coli collected in Air sac: 0 Logarithmic number of collected cells per 1 g of tissue
  Escherichia coli collected in Lung: 0 Logarithmic number of collected cells per 1 g of tissue
  Escherichia coli collected in Trachea: 0 Logarithmic number of collected cells per 1 g of tissue
  Chickens developing disease in air sac (naked eye observation): 0
  No. of dead chickens: 0
[6]
  MIC: 0.05 µg/mL
[7]
  MIC: 0.05 µg/mL
[8]
  MIC: 0.2 µg/mL
Escherichia coli S6W
  MIC: 0.025 µg/mL
Escherichia coli 881
  MIC: 0.05 µg/mL
[9]
  MIC: 0.05 µg/mL
Escherichia coli 139
  MIC: 0.05 µg/mL
[10]
  MIC: 0.05 µg/mL
[11]
  MIC: 0.025 µg/mL
[12]
  MIC: 0.0125 µg/mL
[13]
  MIC: 0.025 µg/mL
[14]
  MIC: 0.05 µg/mL
